# Test results reported in patent US20190328857A1, “CALR AND JAK2 VACCINE COMPOSITIONS” (IO Biotech ApS, priority 2016, published 2019).
# Experiments:
# Type in all cases: cell-based, human
# autologous CALRmut cells = test: Intracellular cytokine staining of CALRLong1-specific T cells stimulated with autologous target cells; details: IFN-γ 300 U/ml for 24 h
# Protocol: As target cells, we used autologous CD14^+ monocytes and B-cells (BCL). As described above, CD14^+ monocytes were isolated using the MACS CD14 MicroBead kit. An autologous B-cell line was generated using EBV transfection of donor BCL at the Health Protection Agency Culture Collections, Salisbury, UK.
# Frozen T-cells were thawed one day prior to assaying, and in experiments examining CD107a expression, a CD107a-PE antibody was added to cells directly after addition of peptide or target cells. After one hour of stimulation, protein-transport inhibitor Brefeldin A (BD Biosciences, San Jose, Calif., USA) was added to the cells which were then stimulated for four h. Cells were stained with CD3-APC-H7, CD4-FITC, CD8-PerCP, IFN-γ-APC, TNF-α-BV421 and Fixable Viability Stain 510 (BD Biosciences, San Jose, Calif., USA), permeabilized and washed with Permeabilization Reagent/Diluent and fixation-permeabilization buffer (AH Diagnostics, Aarhus, Denmark). Cells were acquired with a FACS Canto II (BD Biosciences) and analyzed using FACSDiva software. All effector cell stimulations were run in triplicate wells if not otherwise specified.
# Autologous CD14^+ monocytes were cultured with CellGro, GM-CSF (1000 U/ml) and IL-4 (250 U/mL) and transfected with either CALR siRNA or negative-control siRNA (Invitrogen) the next day, using electroporation parameters as described previously (Met et al., 2011). In brief, monocytes were washed twice, suspended in Opti-MEM medium (Invitrogen) and adjusted to a final cell density of 10^7 cells/ml. The cell suspension (200 μl) was preincubated for 5 min on ice and subsequently, together with 5 μl of CALR siRNA or 10 μl of negative control siRNA transferred to a 2-mm gap electroporation and pulsed using a BTX 830 square-wave electroporator (Harvard Apparatus, Holliston Mass., USA). Electroporation settings were adjusted to a single pulse, 250 V, 2 ms. […]
# As target cells, we used CD14^+ monocytes with CALRmut allelic burden of 71% and autologous EBV-transformed immortalized B-cells with a CALRmut allelic burden of 0% determined by PCR analysis. […]
# UKE-1 and THP-1 cells = test: ELISPOT of JAK201-specific T cells stimulated with cancer cell lines; details: 100 U/ml IFN-γ 2 days before assaying
# From the text: (§1) Next, we examined the capacity of JAK201-specific T cells to recognize and kill cancer cells harboring the JAK2V617F mutation. UKE-1, SET-2 and THP-1 are acute myeloid leukemia cancer cell lines that are HLA-A2-positive. THP-1 cells are JAK2 wt, whereas UKE-1 cells are homozygous and SET-2 are heterozygous for the JAK2V617F mutation. We first examined JAK201-specific T-cells reaction towards the UKE-1 cancer cell line. […] IFN-γ is known to induce the immunoproteasome and to upregulate HLA class I on the cell surface overall enhancing the antigen presentation by the target cell.
# Finally to confirm the recognition of cells expressing the JAK2V617F mutation, we transfected JAK2 wt THP-1 cells with mRNA encoding the JAK2V617F mutation using neural growth factor receptor (NGFR) encoding mRNA as control and used these cells as target cells in cytokine release and Granzyme B assays. […] More than 50% of patients with Philadelphia chromosomenegative chronic MPN harbor the JAK2V617F mutation. This acquired somatic mutation is found exclusively in myeloid malignancies, rendering it a cancer-specific antigen. JAK2V617F is consequently an attractive target for cancer immune therapy.
# [1] = system: UKE-1, SET-2 and THP-1 cells; test: Standard Cr^51 cytotoxicity assay with JAK201-specific T cells and cancer cell lines
# From the text: as §1
# Then we examined the importance of the intracellular expression of the JAK2V617F mutation for the recognition of target cells by JAK201-specific T cells. Thus to silence the JAK2V617F mutation, we transfected UKE-1 cells with JAK2V617F siRNA and used the transfected cells as target cells, and compared the recognition with mock transfected UKE-1 cells as previously described. Silencer siRNA duplex for targeted silencing of JAK2V617F with 3′-end overhang dT bases in the antisense strand (sense sequence 5′-[…]-3′ (SEQ ID NO: 21), antisense sequence 5′-[…]-3′ (SEQ ID NO: 22) for duplex 1; and sense sequence 5′-[…]-3′ (SEQ ID NO: 23), antisense sequence 5′-[…]-3′ (SEQ ID NO: 24) for duplex 2) were obtained from Invitrogen (Invitrogen, Paisley, UK). […]
substance,measurement,setting,value
IFN-γ: cytokine used to pretreat target cells to enhance antigen presentation,"effect of target cell stimulation on T-cell activation, B-cells",autologous CALRmut cells,no change in activation
same,"effect of target cell stimulation on T-cell activation, CALRmut monocytes",autologous CALRmut cells,significantly enhanced
same,effect of pretreatment of UKE-1 cells on IFN-γ release from the T cells,UKE-1 and THP-1 cells,even greater release
same,lysis of SET-2 cells after stimulation,[1]; IFN-γ stimulation,likewise lysed
same,effect of treatment of UKE-1 cells on lysis,[1]; IFN-γ treatment,augmented
